Data: PMC10610016, “New Hybrid Compounds Incorporating Natural Products as Multifunctional Agents against Alzheimer’s Disease” (Pharmaceutics, 2023)

Assays:
[1] = DPPH radical scavenging assay; format: biochemical
Description: The DPPH assay was carried out in a 96-microwell plate according to a previously described protocol. In brief, DPPH solution (60 µM in MeOH) was added to studied compounds or MeOH as the control. The 96-microwell plate was incubated (in the dark, at r.t. for 1 h) and the absorbance values were read at 517 nm by a SPECTROstarNano (220–1000 nm) UV–Vis spectrophotometer, Ortenberg, Germany. During the first screening, all compounds were tested ad 100 µM, then for compounds 2a–c the EC50 (effective concentration), the concentration of substrate that causes a 50% reduction in the DPPH colour, was calculated.
All experiments were made in triplicate. The percentage of the antioxidant activity (%AA) of the compounds was determined according to Equation (1):%AA = ((AbsDPPH − Abssample)/AbsDPPH) × 100(1)
AbsDPPH is the absorbance of DPPH solution, and Abssample is the absorbance of DPPH solution containing the tested compound.
Each concentration was tested in triplicate and the EC50 value was reported as the mean ± the standard error of the mean (SEM) of three independent experiments.

[2] = ABTS assay; format: biochemical
Description: The ABTS assay was performed according to the methods reported in literature. Briefly, 7 mM of ABTS was mixed with 2.45 mM of K2S2O8 solution, ratio 1:1, in 10 mM phosphate buffer (pH 7.4). The mixture was incubated in a dark box at r.t. for 12 h, then the stock solution was diluted until the absorbance was 0.70 ± 0.02 at 734 nm.
In a 96-well plate, 190 µL ABTS working solution and 10 µL sample solution (compounds 2a–c, 3a–c at concentration of 100 μM) were mixed and the absorbance was measured (734 nm) using a SPECTROstarNano (220–1000 nm) UV–Vis spectrophotometer, Ortenberg, Germany. Then, for compounds 2a–c the EC50 was calculated and the values were expressed in TEAC equivalents. Each concentration was tested in triplicate and the EC50 was reported as the mean ± SEM of three independent experiments.

[3] = tested on: rat brain homogenate; assay: TBARS assay, ex vivo rat brain homogenate (Fe3+/ascorbic acid lipid peroxidation); format: biochemical; conditions: compound 1 μM
Description: The TBARS assay was carried on in accordance with a previously published protocol. Briefly, the rat brain, freshly isolated, was homogenized in 10% (w/v) phosphate buffer, pH 7.4. The stock solutions of compounds 2a–c and 3a–c (10 mM in DMSO) were prepared and then diluted at three different concentrations (1 mM, 100 µM, and 10 µM) with phosphate buffer pH 7.4. The experiment was performed in a falcon tube where the rat brain homogenate (100 µL) was added to FeCl3 (20 µM) and ascorbic acid (100 µM) with or without test compounds. […] All samples were heated at 37 °C and were stirred for 30 min. After this period, thiobarbituric acid (1% w/v in 0.05 N NaOH) and 25% v/v HCl were added and the falcon tubes were boiled for 10 min. Then, they were cooled in an ice-cold water bath. Finally, the extraction was executed using n-butanol (3 mL) and the tubes were centrifuged at 2000 g for 10 min. The organic portion was transferred into 96-well plates and the absorbance, at 532 nm, was recorded using a SPECTROstarNano (220–1000 nm) UV–Vis spectrophotometer, Ortenberg, Germany. The TBARS was reported as nmoles of malondialdehyde (MDA)/10 mg of rat brain tissue, by interpolation with the standard curve of 1,1,3,3-tetramethoxypropane. Data represent the mean ± SEM of the triplicate.

[4] = mean ± SEM of three independent experiments

## O=C(/C=C/c1ccc(O)c(O)c1)NOCc1cccc(C(F)(F)F)c1 [Compound 2b, (E)-3-(3,4-dihydroxyphenyl)-N-((3-(trifluoromethyl)benzyl)oxy)acrylamide]
[1]; compound 100 µM, DPPH 60 µM in MeOH, 1 h
  %AA (percentage of antioxidant activity), DPPH: 96%
[1]; [4]
  EC50: 6.1 ± 0.1 µM
  TEAC (Trolox equivalent antioxidant capacity), DPPH: 10.9 ± 0.3 µM
[2]; compound 100 µM
  radical scavenger / antioxidant activity, ABTS: 98.8%
[2]; [4]
  EC50: 13.4 ± 0.1 µM
  TEAC, ABTS: 11.7 ± 0.01 µM
[3]
  antioxidant effect on TBARS production in rat brain: maintained its profile
other
  melting point: 110 to 112 °C
